Measured values from patent publication US4863902A, “Treatment of cancer” (Wakunaga Seiyaku Kabushiki Kaisha, priority 1985, dated 1989).

Tests used:
[1] = tested on: MX-1 (human breast cancer); assay: Tumor weight of transplanted human breast cancer in nude mice; format: in vivo, mouse (human tumor xenograft); settings: Table 4, adriamycin 10 mg/Kg, hEGF 100 μg/Kg on days 1, 8, 10 and 13, average ± standard error of 8 mice
Description: After BALB/c AJcl-nu strain male nude mice were preliminarily fed for one week in an aseptic clean rack maintained at a constant temperature, (23±0.5°
C.) and a constant humidity (60±5%), those which appeared to be healthy weighing around 20 g were provided for the present experiment in 8 mice per group. The mice employed in the present experiments hereinafter were fed under the above environment.
MX-1 (human breast cancer) was cut into sizes of about 1 mm square and transplanted subcutaneously on the right side of mouse axilla by a cell transplanting needle (trocker). 17 days after transplantation, the size of tumor, namely the longer diameter (a mm) and shorter diameter (b mm) were measured and the tumor weight was calculated by the following formula similarly as for Colon 26.
(§1) Tumor weight (mg)=ab^2 /2
(§2) Before carrying out experiments, tumor weights were measured immediately before administration of the compounds (the day 17 after tumor transplantation) and the mice were grouped into 3 groups by use of random numbers so that there may be no difference in average value of the tumor weights on initiation of experiments between the respective groups to make even the average values of tumor weights of the respective groups, and thereafter the compounds were administered to the respective groups.
Administration of the compounds was conducted 4 times as the total on the day 1, the day 8, the day 10 and the day 13. The test solutions were as shown below.

[2] = tested on: Colon adenocarcinoma 26 (mouse colon adenocarcinoma); assay: Tumor weight of transplanted Colon adenocarcinoma 26 in BALB/c mice; format: in vivo; settings: for antitumor effect potentiating action, same experiment as Experimental Example 13: in combination with cyclophosphamide in place of 5-FU
Description: After BALB/c mice were preliminarily fed in a thermostat (23°±0.5° C.), humidistat (60±5%) room for 1 week, those which appear to be healthy weighing 18-20 g were provided for the present experiment in 6-12 mice per 1 group.
(§3) Colon adenocarcinoma 26 (mouse colon adenocarcinoma) was minced into pieces and about 0.1 to 0.2 ml thereof was transplanted subcutaneously on the right side of mouse abdomen by a cell transplanting needle (trocker). Six days after transplantation, the size of tumor, namely longer diameter (a mm) and shorter diameter (b mm) of tumor were measured and the tumor weight was calculated according to the formula shown below [Instruction 14 (NCI) 1980].
as §1
as §2, with “compounds” for “compounds (the day 17 after tumor transplantation)”
In this FIGURE, the axis of abscissa indicates the experimental days with the day of compound administration being the day 1, and the axis of ordinate indicates tumor cell growth ratio which is the ratio of the tumor weight after elapse of the respective days relative to the tumor weight on the day 1 as being 100%.

[3] = tested on: Colon adenocarcinoma 38 (mouse colon adenocarcinoma); assay: Tumor weight of transplanted Colon adenocarcinoma 38 in C57BL/6 mice; format: in vivo; settings: for antitumor effect of (a) + (b) (quantity not headed; method of Experimental Example 4): Table 21
Description: as §3, with “38” for “26”, “Eleven” for “Six”
as §1
In the Table, days indicate the experimental days with the day of compound administration being as the day 1, and the tumor weight immediately before administration of compound of day 1 is made 100. The respective values show the average value ± standard error of case numbers of 10 to 20, in the Table, the marks of (*), * and *** indicate the statistical significance difference of the combined administration group relative to the 5-FU single administration group (the definition of P is as defined above).

[4] = tested on: mouse ovarian tumor M5076; assay: Tumor weight of solid tumor of mouse ovarian tumor in BDF1 mice; format: in vivo; settings: used together with mytomycin C in place of cisplatin
Description: BDF1 male mice were employed. The feeding conditions were the same as in Experimental Example 1.
Mouse ovarian tumor M5076 was transplanted subcutaneously at the axialla of mouse in 1-2×10^6 cells per mouse. 12 days after transplantation, the size of tumor was measured according to the same method as in Experimental Example 1 (Colon 26) and the tumor weight was calculated.
The grouping operation on initiation of Experiments was conducted in the same manner as in Experimental Example 1. The compounds were administered in the same manner as in Experimental Example 9.
The experiment was carried out in the samme manner as in Experimental Examples 1, 7 and as in Experimental Example 17 for others.

receptor = receptor (Homo sapiens, UniProt P00533); settings: J. Biol. Chem., 247, 7659 (1972); cited from earlier work
[5] = (a) Adriamycin, Mixed injection
[6] = (a) Adriamycin, Separate injection
[7] = (a) Cisplatin, Separate injection

Row | Molecule | Tumor weight (day 1 = 100) ([1]; day 4) | Tumor weight (day 1 = 100) ([1]; day 7) | Tumor weight (day 1 = 100) ([1]; day 11) | Tumor weight (day 1 = 100) ([1]; day 14) | antitumor effect potentiating action, same experiment as Experimental Example 13 [2] | antitumor action potentiating effect, same experiment as Experimental Example 8 ([2]; used in place of hEGF in combination with 5 mg/Kg cisplatin) | antitumor effect of (a) + (b) (quantity not headed; method of Experimental Example 4) [3, 5] | antitumor effect of (a) + (b) (quantity not headed; method of Experimental Example 4) [3, 6] | antitumor effect of (a) + (b) (quantity not headed; method of Experimental Example 4) ([3]; (a) Cisplatin, Mixed injection) | antitumor effect of (a) + (b) (quantity not headed; method of Experimental Example 4) [3, 7] | antitumor effect of (a) + (b) (quantity not headed; method of Experimental Example 4) ([3]; (a) Tegafur, Mixed injection) | antitumor effect of (a) + (b) (quantity not headed; method of Experimental Example 4) ([3]; (a) Tegafur, Separate injection) | tumor cell growth inhibition, same experiment as Experimental Example 4 ([3]; used in place of hEGF in combination with 5-FU) | tumor cell growth inhibition, same experiment as Experimental Example 14 ([3]; used in place of hEGF in combination with Tegafur) | antitumor effect potentiation, same experiment as Experimental Example 17 [4] | binding ability of receptor or biological activity (receptor)
1 | COc1cccc2c1C(=O)c1c(O)c3c(c(O)c1C2=O)C[C@@](O)(C(=O)CO)C[C@@H]3O[C@H]1C[C@H](N)[C@H](O)[C@H](C)O1 [Adriamycin, adriamycin] | 162.0 ± 5.4 | 221.8 ± 20.1 | 291.8 ± 21.3 | 256.9 ± 12.7 | – | – | – | – | – | – | – | – | – | – | – | –
2 | hEGF-II: fragment lacking two amino acid residues on the C-terminal side of hEGF (NSDSECPLSHDGYCLHDGVCMYIEALDKYACNCVVGYIGERCQYRDLKWWE; not fully specified; Epidermal growth factor; UniProt P01133 971-1021, looked up, fragment) | – | – | – | – | the same results | the same results | 105.6 | 103.3 | 102.3 | 96.6 | 47.8 | 42.8 | the same results | the same results | the same results | the same as hEGF
3 | hEGF: human epidermal growth factor/urogastrone, 53 amino acid residues, three disulfide bonds | – | – | – | – | the same results | – | 103.1 | 98.5 | 88.8 | 80.3 | – | – | – | – | the same results | –
